US6624203B1, “Nucleic acid bases used in ophthalmic solutions” (priority 2001, dated 2003)

Columns and labels:
C. albicans = assay: In vitro microbicidal activity against C. albicans (log reduction vs inoculum control); assay type: cell-based; conditions: 0.2% phosphate buffer, isotonic NaCl, PHMB 0.0001%, pH 7.2
Method: A formulation containing guanine was prepared in a 0.2% phosphate buffer. The solution was made isotonic with sodium chloride and preserved with polyhexamethylene biquanide at 0.0001%. The pH was adjusted to 7.2 with either 1 N sodium hydroxide or 1 N hydrochloric acid. The in vitro microbicidal activity of the test and control solution was determined by exposing C. albicans to 10 ml of each solution at room temperature for 4 and 24 hours. Subsequently, an aliquot of each solution was serial diluted onto agar plates and incubated for 48 hours at elevated temperatures. At the conclusion of the incubation period the plates are examined for the development of colonies. The log reduction was determined based on a comparison to the inoculum control. The following table provides the results of the in vitro studies.

[1] = system: Acanthamoeba castellanii cysts; assay: In vitro anti-acanthamoeba activity (serial dilution, viable trophozoites, log reduction); assay type: cell-based; conditions: 0.5% guanine with PHMB 0.02% versus control without guanine
Method: A formulation containing 0.5% guanine was prepared in a 0.2% glycine buffer at pH 7.35. The solution was preserved with polyhexamethylene biquanide at 0.02%. A similar control was prepared except without the guanine. The in vitro anti-acanthamoeba activity of the test and control solutions was determined by exposing Acanthamoeba castellanii cysts to 2 ml of each solution at room temperature for 10 minutes. Subsequently, an aliquot of each solution was serial diluted in duplicate and incubated for 14 days. At the conclusion of the incubation period, the dilutions were examined for viable Acanthamoeba trophozoites. The log reduction was determined based on a comparison to the inoculum control. A negative control was performed to verify the technique. The following table provides the results of the in vitro studies.

With `Nc1nc2nc[nH]c2c(=O)[nH]1` [Guanine, guanine] the “log reduction, 4 hours” value (C. albicans; C. albicans exposed to 10 ml solution at room temperature for 4 hours) was 0.97, the “log reduction, 24 hours” value (C. albicans; C. albicans exposed to 10 ml solution at room temperature for 24 hours) was 3.05 and the “Effect of guanine on activity of preserved formulations against Acanthamoeba” value [1] was “improves the activity of preserved formulations against Acanthamoeba”.
